Test results: PMC9505425, “Targeting of the Mitochondrial TET1 Protein by Pyrrolo[3,2-b]pyrrole Chelators” (International Journal of Molecular Sciences, 2022)
“And” between values parts separate entries of the source, which are not always exact repeats. Identical values can stand only once.

Assays:
[1] = test system: BT-20 cells; assay: MTT cytotoxicity assay, BT-20; assay type: cell-based, human; conditions: for Cell viability % / IC50: 48 h; for IC50: BT-20, MTT
Protocol: (§1) The effects of the tested compounds 1–6 on HF-P4, U-118 MG, H1299, BT-20, and Caov-3 cell lines were evaluated by the MTT assay during 48 h treatment (Table 2 and Tables S2–S31). In all tested compounds, we recognized a difference in cytotoxicity between healthy cells (HF-P4) and cancer cell lines (BT-20, Caov-3, and H-1299). […] In the case of ovarian cancer, the authors discovered oncogenic and poor prognosis roles of TET1 in epithelial ovarian carcinoma (EOC). TET1 is believed to demethylate the epigenome and activate numerous oncogenic pathways in EOC. The aforementioned study presents a new mechanism where TET1 contributes to tumor development through collaboration with CK2α [21]. The overexpression of the TET1 protein was also found in triple negative breast cancer and was associated with an activation of PI3K/mTOR pathway and decreased overall survival.
The human mammary gland/breast cell line (BT-20), purchased from ATCC (BT-20 (ATCC® HTB-19™), Manassas, VA, USA), was used for the cytotoxicity assay (MTT), and BT-20 cells were cultivated under standard conditions in Eagle’s minimum essential medium (ATCC, Manassas, VA, USA) supplemented with 10% FBS and streptomycin (100 μg/mL) at 37 °C at a 5% CO2 atmosphere.
(§2) For the cytotoxicity assay, we used the following cell lines: human glioblastoma cell line U118-MG, human mammary gland/breast cell line BT-20, human ovary adenocarcinoma cell line Caov-3, and non-small-cell lung carcinoma H-1299. As previously mentioned, these cell lines contain a high level of the TET1 protein, which corresponds to a lower overall survival. In addition to these cell cultures, we used the human dermal fibroblast cell line HF-P4 as a healthy control. Determination of cytotoxicity was performed using the MTT [3-(4,5-dimethylthiazol-2-yl)-2,5-diphenyltetrazolium bromide] colorimetric assay. Viable cells from each cell line were cultured in 96-well plates (VWR, Stříbrná Skalice, Czech Republic) at a density of 1.0 × 10^5 cells per well and allowed to grow for 24 h in 200 μL of recommended medium. After a 1-day incubation, the medium was replaced with solutions of compounds 1–6 at concentration ranges of 0.1–20 μM. Each concentration was measured four times within one test, and the entire test was repeated three times. Tested compounds 1–6 were dissolved in DMSO and then diluted with corresponding medium to a final volume of 200 μL (maximum 1% DMSO). After 48 h exposure, cells were treated with 175 μL of MTT solution (P-LAB, Prague, Czech Republic) for 2 h. In the next step, MTT solution was removed, and 125 μL of DMSO (Penta, Prague, Czech Republic) was added to solubilize dark crystals of formazan formed in intact cells, and absorbance was measured at 570 nm by the enzyme-linked immunoabsorbent assay reader Infinite® 200 PRO (Tecan, Männedorf, Switzerland). The final DMSO concentration was smaller than 1% (v/v). The absorbance of untreated cells was considered 100%, and IC50 values were calculated by the GraphPad Prism 8 software. As a parameter for cytotoxicity, we used a concentration that inhibits 50% of cell growth (IC50).

[2] = test system: Caov-3 cells; assay: MTT cytotoxicity assay, Caov-3; assay type: cell-based, human; conditions: for Cell viability % / IC50: 48 h; for IC50: Caov-3, MTT
Protocol: as §1
The human ovary adenocarcinoma cell line (Caov-3), purchased from ATCC (Caov-3 (ATCC® HTB-75™), Manassas, VA, USA), was used for the cytotoxicity assay (MTT). Caov-3 cells were cultivated under standard conditions in Dulbecco’s modified Eagle’s medium (ATCC, Manassas, VA, USA) supplemented with 10% FBS and streptomycin (100 μg/mL) at 37 °C at a 5% CO2 atmosphere.
as §2

[3] = BT-20, 750 nM, repeats, 0.75 µM
[4] = Homo sapiens, BT-20, 48 h, BT-20, 100 nM, repeats, read-out: Cell viability %
[5] = Homo sapiens, BT-20, 48 h, BT-20, 500 nM, repeats, read-out: Cell viability %
[6] = Homo sapiens, BT-20, 48 h, BT-20, 1 uM, repeats, read-out: Cell viability %
[7] = Homo sapiens, BT-20, 48 h, BT-20, 7.5 uM, repeats, read-out: Cell viability %
[8] = Homo sapiens, BT-20, 48 h, BT-20, 10 uM, repeats, read-out: Cell viability %
[9] = Homo sapiens, BT-20, 48 h, BT-20, 15 uM, repeats, read-out: Cell viability %
[10] = Homo sapiens, BT-20, 48 h, BT-20, 20 uM, repeats, read-out: Cell viability %
[11] = Caov-3, 100 nM, repeats, 0.1 µM
[12] = Caov-3, 500 nM, repeats, 0.5 µM
[13] = Caov-3, 750 nM, repeats, 0.75 µM
[14] = Caov-3, 2.5 uM, repeats, 2.5 µM
[15] = Caov-3, 7.5 uM, repeats, 7.5 µM
[16] = Homo sapiens, Caov-3, 48 h, Caov-3, 15 uM, repeats, read-out: Cell viability %
[17] = Homo sapiens, Caov-3, 48 h, Caov-3, 20 uM, repeats, read-out: Cell viability %

## COc1cccc(/C=N/NC(=O)c2ccc(-c3cc4c(cc(-c5ccc(C(=O)N/N=C/c6cccc(OC)c6O)cc5)n4-c4ccc(C)cc4)n3-c3ccc(C)cc3)cc2)c1O [Compound 5]
[1]; BT-20, 100 nM, repeats, 0.1 µM
  Cell viability %: 94.73% and 89.5899%
[1]; BT-20, 500 nM, repeats, 0.5 µM
  Cell viability %: 90.47% and 107.0261%
[1]; [3]
  Cell viability %: 86.64% and 81% and 102.8391%
[1]; BT-20, 1 uM, repeats, 1 µM
  Cell viability %: 92.1% and 100.302%
[1]; BT-20, 2.5 uM, repeats, 2.5 µM
  Cell viability %: 80.3% and 100.57% and 104.0262%
[1]; BT-20, 5 uM, repeats, 5 µM
  Cell viability %: 60.99% and 87.49% and 89.1%
[1]; BT-20, 7.5 uM, repeats, 7.5 µM
  Cell viability %: 52.633% and 55.7373%
[1]; BT-20, 10 uM, repeats, 10 µM
  Cell viability %: 52.47% and 37.54%
[1]; BT-20, 15 uM, repeats, 15 µM
  Cell viability %: 28.45% and 34.27%
[1]; BT-20, 20 uM, repeats, 20 µM
  Cell viability %: 18.3694% and 26.24%
[1]; [4]
  viability at 0.1 µM: 86%
[1]; [5]
  viability at 0.5 µM: 97.4%
[1]; [6]
  viability at 1 µM: 99%
[1]; [7]
  viability at 7.5 µM: 45.7%
[1]; [8]
  viability at 10 µM: 41.3%
[1]; [9]
  viability at 15 µM: 28.5%
[1]; [10]
  viability at 20 µM: 20.9%
[1]; Homo sapiens
  IC50: 11.2 µM
[2]; [11]
  Cell viability %: 124.7159% and 131.0561% and 82.4%
[2]; [12]
  Cell viability %: 90.56% and 116.6807% and 137.4211%
[2]; [13]
  Cell viability %: 97.72% and 117.0859% and 120.9681%
[2]; Caov-3, 1 uM, repeats, 1 µM
  Cell viability %: 115.5595% and 95.48% and 128.3145%
[2]; [14]
  Cell viability %: 106.339% and 69.34% and 79.185%
[2]; Caov-3, 5 uM, repeats, 5 µM
  Cell viability %: 81.63% and 70.92%
[2]; [15]
  Cell viability %: 49.35% and 63.65%
[2]; Caov-3, 10 uM, repeats, 10 µM
  Cell viability %: 41.31% and 47.33%
[2]; Caov-3, 15 uM, repeats, 15 µM
  Cell viability %: 34.22% and 36.44%
[2]; Caov-3, 20 uM, repeats, 20 µM
  Cell viability %: 16.1941% and 14.83%
[2]; Homo sapiens, Caov-3, 48 h, Caov-3, 5 uM, repeats, read-out: Cell viability %
  viability at 5 µM: 83.6%
[2]; Homo sapiens, Caov-3, 48 h, Caov-3, 7.5 uM, repeats, read-out: Cell viability %
  viability at 7.5 µM: 62.5%
[2]; Homo sapiens, Caov-3, 48 h, Caov-3, 10 uM, repeats, read-out: Cell viability %
  viability at 10 µM: 29.5%
[2]; [16]
  viability at 15 µM: 31.5%
[2]; [17]
  viability at 20 µM: 17.9%
[2]; Homo sapiens
  IC50: 9.48 µM

## Cc1ccc(-n2c(-c3ccc(C(=O)N/N=C/c4ccccc4O)cc3)cc3c2cc(-c2ccc(C(=O)N/N=C/c4ccccc4O)cc2)n3-c2ccc(C)cc2)cc1 [Compound 6]
[1]; BT-20, 100 nM, repeats, 0.1 µM
  Cell viability %: 95.0647% and 99.24%
[1]; BT-20, 500 nM, repeats, 0.5 µM
  Cell viability %: 79.35% and 86.49%
[1]; [3]
  Cell viability %: 84.44% and 98.05%
[1]; BT-20, 1 uM, repeats, 1 µM
  Cell viability %: 79.3% and 90.76%
[1]; BT-20, 2.5 uM, repeats, 2.5 µM
  Cell viability %: 84.17% and 92.79%
[1]; BT-20, 5 uM, repeats, 5 µM
  Cell viability %: 70.3% and 79.42%
[1]; BT-20, 7.5 uM, repeats, 7.5 µM
  Cell viability %: 49.86% and 58.52%
[1]; BT-20, 10 uM, repeats, 10 µM
  Cell viability %: 29.6118% and 40.92%
[1]; BT-20, 15 uM, repeats, 15 µM
  Cell viability %: 26.72% and 42.11%
[1]; BT-20, 20 uM, repeats, 20 µM
  Cell viability %: 24.04% and 23.03%
[1]; [4]
  viability at 0.1 µM: 104%
[1]; [5]
  viability at 0.5 µM: 79.9%
[1]; Homo sapiens, BT-20, 48 h, BT-20, 750 nM, repeats, read-out: Cell viability %
  viability at 0.75 µM: 85.1%
[1]; [6]
  viability at 1 µM: 91.2%
[1]; Homo sapiens, BT-20, 48 h, BT-20, 2.5 uM, repeats, read-out: Cell viability %
  viability at 2.5 µM: 89.2%
[1]; Homo sapiens, BT-20, 48 h, BT-20, 5 uM, repeats, read-out: Cell viability %
  viability at 5 µM: 85.8%
[1]; [7]
  viability at 7.5 µM: 50.5%
[1]; [8]
  viability at 10 µM: 36.2%
[1]; [9]
  viability at 15 µM: 37.8%
[1]; [10]
  viability at 20 µM: 18.8%
[1]; Homo sapiens
  IC50: 9.84 µM
[2]; [11]
  Cell viability %: 90.2569% and 126.2705% and 118.7488%
[2]; [12]
  Cell viability %: 89.11% and 125.1899% and 99.08%
[2]; [13]
  Cell viability %: 65.96% and 78.5%
[2]; Caov-3, 1 uM, repeats, 1 µM
  Cell viability %: 64.72% and 111.7508% and 115.9087%
[2]; [14]
  Cell viability %: 67.86% and 93.922% and 75.11%
[2]; Caov-3, 5 uM, repeats, 5 µM
  Cell viability %: 62.99% and 65.69% and 100.7653%
[2]; [15]
  Cell viability %: 58% and 65.63% and 91.09%
[2]; Caov-3, 10 uM, repeats, 10 µM
  Cell viability %: 52.62% and 73.89% and 61.74%
[2]; Caov-3, 15 uM, repeats, 15 µM
  Cell viability %: 42.46% and 49.26%
[2]; Caov-3, 20 uM, repeats, 20 µM
  Cell viability %: 17.34% and 16.88%
[2]; Homo sapiens, Caov-3, 48 h, Caov-3, 750 nM, repeats, read-out: Cell viability %
  viability at 0.75 µM: 67%
[2]; [16]
  viability at 15 µM: 36.3%
[2]; [17]
  viability at 20 µM: 17.4%
[2]; Homo sapiens
  IC50: 15.4 µM
